Experimental data reported in the NIST ThermoML archive (doi:10.1021/je301283e).

Settings: Liquid, Drop volume

CCCCCCC [heptane] + O=C=O
interfacial tension [mN/m]
Settings | 313.15 K | 333.15 K | 353.15 K | 373.15 K | 393.15 K
340 kPa | 16.27 | 14.24 | 12.36 | 11 | 9.62
690 kPa | 15.56 | 13.68 | 11.92 | 10.64 | 9.29
1030 kPa | 14.88 | 13.1 | 11.46 | 10.29 | 8.99
1380 kPa | 14.23 | 12.54 | 10.99 | 9.87 | 8.73
1720 kPa | 13.42 | 12 | 10.6 | 9.54 | 8.45
2070 kPa | 12.71 | 11.38 | 10.13 | 9.27 | 8.23
2410 kPa | 12.05 | 10.8 | 9.78 | 8.84 | 7.93
2760 kPa | 11.17 | 10.2 | 9.24 | 8.45 | 7.63
3100 kPa | 10.54 | 9.62 | 8.71 | 8.1 | 7.32
3450 kPa | 9.76 | 8.92 | 8.19 | 7.67 | 7.1
3800 kPa | 9.04 | 8.32 | 7.86 | 7.35 | 6.84
4140 kPa | 8.36 | 7.76 | 7.34 | 7 | 6.61
4480 kPa | 7.47 | 7.23 | 6.95 | 6.68 | 6.25
4830 kPa | 6.74 | 6.66 | 6.5 | 6.35 | 6
5170 kPa | 5.87 | 6.1 | 6.11 | 5.95 | 5.74
5510 kPa | 5.1 | 5.58 | 5.83 | 5.68 | 5.44
5860 kPa | 4.23 | 5.11 | 5.46 | 5.41 | 5.24
6200 kPa | 3.59 | 4.61 | 4.95 | 5.08 | 4.96
6550 kPa | 3.07 | 4.04 | 4.41 | 4.69 | 4.68
6890 kPa | 2.39 | 3.52 | 4.01 | 4.38 | 4.37
7240 kPa | – | 3.02 | 3.61 | 3.94 | 4.1
7580 kPa | – | 2.4 | 3.22 | 3.67 | 3.81
